Experiment [1] deals with cardiac allograft, WKAH donors and ACI recipients. Kind of experiment: Heterotopic cardiac allograft survival, MHC-incompatible rat strains. It is filed as in vivo.
In experiment [2] the test system is skin allograft, WKAH donor and F344 recipients. The format is in vivo. From the text:
Two MHC-incompatible rat strains were selected, WKAH donor (RT1^k) and F344 recipients (RT1^IV1). Full-thickness skin grafts (2.0×2.0 cm square) were transplanted to the lateral thorax of recipients and wrapped with sterile, bactericidal gauze. The chest was then wrapped with an elastic bandage. Five days after transplantation, the wraps were removed and the grafts inspected daily for rejection. Rejection was defined as more than 90% necrosis of graft epithelium.

Experiment [3] deals with IL-2 mRNA in alloantigen-stimulated splenic T cells. Nature of the experiment: IL-2 mRNA expression in allogeneic mixed lymphocyte culture (PCR). The format is cell-based, rat. As to conditions: 48 hours. Here is the method:
The housekeeping gene HPRT was used as an internal control in order to compare levels of IL-2 mRNA levels relative to the HPRT mRNA levels, as detailed below.
Allogeneic mixed lymphocyte culture was carried out by using nylon-nonadherent spleen cells of F344 rat (RT1^1v1) as responder cells and the spleen cells of WKAH rat (RT1^k) pretreated with 40 μg/ml of mitomycin C for 30 min as stimulator cells. […] After culturing for 48 hours, the cells were recovered by centrifugation. The expression of IL-2 mRNA in the cells was determined by a polymerase chain reaction (PCR) method.
Total RNA was reverse transcribed in […] of buffer solution containing 10 mmol/L Tris-HCl (pH 8.3),50 mM KCl, 5 mM MgCl2, 1 mM each dNTP (dATP, dGTP, dTTP and dCTP), 60 U RNase inhibitor (Takara Ltd. Tokyo, Japan), 15 U avian myelobalastosis virus reverse transcriptase (Takara Ltd.) and 150 pmol random 9-mers at 30° C. for 10 min and 42° C. for 30 min. Primer sequences for IL-2 and hypoxanthine-guanine phosphoribosyltransferase (HPRT) were taken from the previous report (44).
The length in base pairs of the PCR products of IL-2 and HPRT are 351 and 608 bp respectively. […] Fluorescence intensity of the specific bands was visualized by fluorescence image analyzer (FLUOR IMAGER 575®, Molecular Dynamics).

Turning to `C=CC[C@@H]1/C=C(\C)C[C@H](C)C[C@H](OC)[C@H]2O[C@@](O)(C(=O)C(=O)N3CCCC[C@H]3C(=O)O[C@H](/C(C)=C/[C@@H]3CC[C@@H](O)[C@H](OC)C3)[C@H](C)[C@@H](O)CC1=O)[C@H](C)C[C@@H]2OC` [TRL, tacrolimus, reference compound], the “induction of long-term cardiac graft survival” value in experiment [1] (even at the highest dose tested) was “hardly induced long-term graft survival”. In experiment [1] (vs control), the “dose that significantly prolonged cardiac allograft survival” value is at least 1 mg/kg. In addition, the “median survival time (MST) of skin graft” value in experiment [2] (10 mg/kg for 14 days) is 22.5 days. For the same compound, the “oral dose that significantly prolonged skin graft survival” value in experiment [2] (oral, WKAH to F344 rats) is recorded as at least 0.3 mg/kg. Moreover, the “concentration that inhibited IL-2 mRNA expression” value in experiment [3] was at least 1 nM.
